{"source": "ChEMBL document CHEMBL1201862", "about": "“PubChem BioAssay data set” (2004)", "key": {"[1]": {"target": "Peroxisome proliferator-activated receptor gamma/Nuclear receptor coactivator 2 (Homo sapiens, UniProt P37231)", "sequence (P37231 whole entry)": "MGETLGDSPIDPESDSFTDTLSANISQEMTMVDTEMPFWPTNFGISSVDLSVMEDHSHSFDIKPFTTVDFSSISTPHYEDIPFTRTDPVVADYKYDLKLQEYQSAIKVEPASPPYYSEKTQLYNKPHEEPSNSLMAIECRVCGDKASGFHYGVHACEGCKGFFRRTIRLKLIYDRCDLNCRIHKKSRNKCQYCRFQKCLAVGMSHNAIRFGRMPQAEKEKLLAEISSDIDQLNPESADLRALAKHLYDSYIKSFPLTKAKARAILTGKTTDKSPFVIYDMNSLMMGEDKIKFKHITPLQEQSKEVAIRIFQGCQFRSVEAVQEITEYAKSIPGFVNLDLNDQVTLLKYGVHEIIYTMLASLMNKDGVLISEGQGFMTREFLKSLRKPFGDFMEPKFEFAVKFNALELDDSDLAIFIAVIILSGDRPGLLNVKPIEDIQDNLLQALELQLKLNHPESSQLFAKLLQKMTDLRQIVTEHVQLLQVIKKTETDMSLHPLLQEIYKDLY", "sequence (Q15596 whole entry, further chain)": "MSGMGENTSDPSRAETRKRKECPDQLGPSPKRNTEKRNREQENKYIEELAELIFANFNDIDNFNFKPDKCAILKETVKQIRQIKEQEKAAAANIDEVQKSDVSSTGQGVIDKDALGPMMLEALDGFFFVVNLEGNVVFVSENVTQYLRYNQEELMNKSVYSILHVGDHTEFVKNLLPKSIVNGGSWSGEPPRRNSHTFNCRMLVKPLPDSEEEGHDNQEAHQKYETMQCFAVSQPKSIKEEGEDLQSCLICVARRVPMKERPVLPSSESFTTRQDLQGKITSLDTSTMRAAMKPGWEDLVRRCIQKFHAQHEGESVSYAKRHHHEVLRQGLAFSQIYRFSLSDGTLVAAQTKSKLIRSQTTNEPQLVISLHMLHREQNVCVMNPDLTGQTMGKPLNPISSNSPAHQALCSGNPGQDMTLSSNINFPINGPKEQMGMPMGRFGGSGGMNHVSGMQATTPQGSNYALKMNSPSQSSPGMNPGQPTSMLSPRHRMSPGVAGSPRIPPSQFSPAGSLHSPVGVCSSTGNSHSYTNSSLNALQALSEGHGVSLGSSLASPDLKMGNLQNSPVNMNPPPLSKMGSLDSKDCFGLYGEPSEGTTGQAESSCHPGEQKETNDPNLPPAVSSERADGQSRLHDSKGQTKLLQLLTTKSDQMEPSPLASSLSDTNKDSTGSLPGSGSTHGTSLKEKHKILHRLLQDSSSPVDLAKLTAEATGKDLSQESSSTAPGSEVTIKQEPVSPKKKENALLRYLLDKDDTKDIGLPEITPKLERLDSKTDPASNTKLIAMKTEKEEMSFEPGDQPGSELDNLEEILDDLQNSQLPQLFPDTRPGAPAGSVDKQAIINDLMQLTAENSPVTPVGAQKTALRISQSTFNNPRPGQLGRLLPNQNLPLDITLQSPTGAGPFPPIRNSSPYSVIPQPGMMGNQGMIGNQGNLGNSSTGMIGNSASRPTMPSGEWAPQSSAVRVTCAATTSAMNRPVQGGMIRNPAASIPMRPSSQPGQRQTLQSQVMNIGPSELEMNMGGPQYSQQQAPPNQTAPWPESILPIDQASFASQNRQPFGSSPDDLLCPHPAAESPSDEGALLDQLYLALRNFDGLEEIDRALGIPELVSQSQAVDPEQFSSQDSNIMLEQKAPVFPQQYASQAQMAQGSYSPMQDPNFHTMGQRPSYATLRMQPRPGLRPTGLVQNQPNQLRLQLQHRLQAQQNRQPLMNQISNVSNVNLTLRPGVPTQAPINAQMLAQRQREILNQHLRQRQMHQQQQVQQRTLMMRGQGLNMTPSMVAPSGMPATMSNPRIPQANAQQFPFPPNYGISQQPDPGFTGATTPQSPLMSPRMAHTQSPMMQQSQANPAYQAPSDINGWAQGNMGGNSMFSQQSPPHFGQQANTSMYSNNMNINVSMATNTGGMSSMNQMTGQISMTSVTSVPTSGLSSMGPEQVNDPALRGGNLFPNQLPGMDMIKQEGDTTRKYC", "format": "functional"}, "[2]": {"target": "Peroxisome proliferator-activated receptor gamma/Nuclear receptor coactivator 1 (Homo sapiens, UniProt P37231)", "format": "functional"}, "[3]": {"target": "Peroxisome proliferator-activated receptor gamma/Nuclear receptor coactivator 3 (Homo sapiens, UniProt P37231)", "format": "functional"}, "[4]": {"target": "Ion channel NompC (Danio rerio, UniProt Q7T1G6)", "sequence (Q7T1G6 whole entry)": "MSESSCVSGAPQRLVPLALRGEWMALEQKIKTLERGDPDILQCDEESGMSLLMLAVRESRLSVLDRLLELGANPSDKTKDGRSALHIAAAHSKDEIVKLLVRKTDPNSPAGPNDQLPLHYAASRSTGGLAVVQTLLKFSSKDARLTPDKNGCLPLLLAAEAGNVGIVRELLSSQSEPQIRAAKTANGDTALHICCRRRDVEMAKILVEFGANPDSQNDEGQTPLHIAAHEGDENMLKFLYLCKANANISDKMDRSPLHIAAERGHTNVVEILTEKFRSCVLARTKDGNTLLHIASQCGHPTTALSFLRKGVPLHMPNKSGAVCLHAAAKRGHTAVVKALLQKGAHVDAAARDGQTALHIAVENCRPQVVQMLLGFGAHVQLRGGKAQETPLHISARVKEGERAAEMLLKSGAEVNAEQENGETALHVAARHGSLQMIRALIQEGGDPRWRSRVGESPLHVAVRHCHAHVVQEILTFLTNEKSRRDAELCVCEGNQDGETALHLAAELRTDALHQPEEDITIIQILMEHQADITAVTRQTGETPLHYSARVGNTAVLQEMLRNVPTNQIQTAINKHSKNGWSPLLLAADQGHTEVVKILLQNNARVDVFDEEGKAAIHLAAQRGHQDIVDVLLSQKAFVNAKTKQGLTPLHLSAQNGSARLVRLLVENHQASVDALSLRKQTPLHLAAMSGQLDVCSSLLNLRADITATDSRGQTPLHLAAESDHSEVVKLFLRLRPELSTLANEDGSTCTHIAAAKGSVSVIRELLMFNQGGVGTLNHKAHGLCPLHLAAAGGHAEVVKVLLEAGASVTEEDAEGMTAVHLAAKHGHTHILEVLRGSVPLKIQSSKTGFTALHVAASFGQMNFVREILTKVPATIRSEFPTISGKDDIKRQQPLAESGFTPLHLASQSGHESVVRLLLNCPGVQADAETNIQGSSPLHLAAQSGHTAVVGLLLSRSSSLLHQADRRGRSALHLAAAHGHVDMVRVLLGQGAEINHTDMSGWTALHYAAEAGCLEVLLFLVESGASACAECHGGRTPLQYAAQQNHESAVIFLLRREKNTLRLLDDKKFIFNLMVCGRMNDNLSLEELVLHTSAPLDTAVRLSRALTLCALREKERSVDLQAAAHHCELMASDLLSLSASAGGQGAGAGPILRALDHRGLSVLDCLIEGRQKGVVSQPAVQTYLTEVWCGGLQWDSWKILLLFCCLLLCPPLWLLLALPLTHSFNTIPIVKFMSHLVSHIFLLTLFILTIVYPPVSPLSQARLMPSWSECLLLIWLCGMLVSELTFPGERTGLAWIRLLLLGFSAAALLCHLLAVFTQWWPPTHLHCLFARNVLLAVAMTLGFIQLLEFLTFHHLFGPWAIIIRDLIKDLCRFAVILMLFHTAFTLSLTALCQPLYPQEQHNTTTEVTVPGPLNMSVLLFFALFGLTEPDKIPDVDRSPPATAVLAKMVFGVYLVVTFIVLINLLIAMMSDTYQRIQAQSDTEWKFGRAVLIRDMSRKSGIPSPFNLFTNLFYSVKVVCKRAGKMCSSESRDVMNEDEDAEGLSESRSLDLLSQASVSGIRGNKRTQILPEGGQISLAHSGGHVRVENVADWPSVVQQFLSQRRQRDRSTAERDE", "experiment": "Fluorescence counterscreen assay for TRPML3 agonists: dose response cell-based high-throughput screening assay to identify agonists of the transient receptor potential channel N1 (TRPN1). [Related pubchem assays: 1526, 1424, 1448 ]", "format": "functional"}, "[5]": {"target": "Mucolipin-3 (Homo sapiens, UniProt Q8TDD5)", "sequence (Q8TDD5 whole entry)": "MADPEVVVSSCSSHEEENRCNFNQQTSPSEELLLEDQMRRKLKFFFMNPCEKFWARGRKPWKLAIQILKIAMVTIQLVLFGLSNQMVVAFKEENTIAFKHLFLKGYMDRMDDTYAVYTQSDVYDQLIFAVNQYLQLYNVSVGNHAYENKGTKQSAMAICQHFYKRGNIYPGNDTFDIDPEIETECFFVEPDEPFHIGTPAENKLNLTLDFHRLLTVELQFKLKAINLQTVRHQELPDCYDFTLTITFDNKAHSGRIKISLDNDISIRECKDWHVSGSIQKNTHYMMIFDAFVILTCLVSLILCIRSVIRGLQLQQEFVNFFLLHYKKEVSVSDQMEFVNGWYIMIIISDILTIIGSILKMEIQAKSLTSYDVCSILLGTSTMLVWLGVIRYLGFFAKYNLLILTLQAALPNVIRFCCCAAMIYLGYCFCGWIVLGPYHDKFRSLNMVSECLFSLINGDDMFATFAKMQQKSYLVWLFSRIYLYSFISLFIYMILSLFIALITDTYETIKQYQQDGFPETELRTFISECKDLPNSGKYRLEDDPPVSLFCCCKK", "experiment": "Dose response cell-based high-throughput screening assay for agonists of the transient receptor potential channel ML3 (TRPML3). [Related pubchem assays: 1526, 1424, 1448 ]", "format": "functional"}, "[6]": {"experiment": "A High Throughput Confirmatory Assay used to Identify Novel Compounds that Inhibit Mycobacterium Tuberculosis in the absence of Glycerol.", "format": "functional"}, "[7]": {"experiment": "antiviral protection against BTV-induced cell death – arbovirus, BSR cells, confirmation (AID 1250);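 further: protection from viral cytopathic effect measured as cell viability by ATP luminescence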", "format": "functional"}, "[8]": {"experiment": "A549 cell cytotoxicity, dose response, cytotoxicity control, plate reader, cherry-pick, antagonist series (AID 743412)", "format": "functional, cell-based"}, "[9]": {"experiment": "blockers of bursicon-stimulated LGR2 cAMP reporter – cell-based, HEK293, CRE-luciferase reporter, cherry pick, set 2, dose response (AID 743343);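 further: transfected cells were stimulated with diluted bursicon conditioned medium after compound addition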", "format": "functional"}, "[10]": {"experiment": "blockade of melanocortin 4 receptor signaling – cell-based, plate reader, cherry pick, counter-screen for LGR2 antagonist project, dose response (AID 743444);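 further: transfected HEK 293 cells stimulated with alpha-MSH peptide; potency of inhibitors of the alpha-MSH evoked signal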", "format": "functional"}, "[11]": {"experiment": "viability loss in HEK293 cells – cell-based, plate reader, cherry-picked samples, cytotoxicity control, dose response (AID 743446)", "format": "functional"}, "[12]": {"target": "T1, Heat shock factor protein 1 (Mus musculus, UniProt P38532)", "T1 sequence (P38532 whole entry)": "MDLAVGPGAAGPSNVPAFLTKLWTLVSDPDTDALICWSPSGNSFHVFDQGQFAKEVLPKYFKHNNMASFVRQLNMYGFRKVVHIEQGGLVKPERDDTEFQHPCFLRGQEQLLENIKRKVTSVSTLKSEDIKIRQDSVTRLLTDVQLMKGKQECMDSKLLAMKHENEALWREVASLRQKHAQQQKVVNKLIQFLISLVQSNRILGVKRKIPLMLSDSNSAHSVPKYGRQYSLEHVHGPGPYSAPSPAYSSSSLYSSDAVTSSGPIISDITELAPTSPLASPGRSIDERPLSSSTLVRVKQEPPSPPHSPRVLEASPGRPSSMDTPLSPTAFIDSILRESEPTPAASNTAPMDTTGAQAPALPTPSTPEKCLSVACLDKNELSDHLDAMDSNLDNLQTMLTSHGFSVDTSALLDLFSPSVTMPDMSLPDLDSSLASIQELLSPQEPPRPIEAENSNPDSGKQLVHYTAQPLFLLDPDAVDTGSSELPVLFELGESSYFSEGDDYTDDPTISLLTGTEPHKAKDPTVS", "experiment": "decrease of HSF1-responsive luciferase luminescence – cell-based, NIH3T3, dose retest, confirmation (AID 2382);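 further: NIH3T3 fibroblasts with HSF1-driven luciferase reporter stressed by proteasome inhibitor MG132; luminescence from HSF1-driven luciferase expression after 8 hours of MG132 stress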", "format": "functional"}, "[13]": {"experiment": "Luminescence-based counterscreen assay for KLF5 inhibitors: dose response cell-based high throughput screening assay to identify cytotoxic compounds using the IEC-6 intestinal epithelial cell line. [Related pubchem assays: 1700 (Primary screen.), 1834 (Confirmation screen.), 1858 (Summary AID.), 1905 (Counterscreen.)]", "format": "functional"}, "[14]": {"experiment": "luciferase reporter signal suppression in cells – H4 neuroglioma cells, luminescence, dose response (AID 1990)", "format": "functional, cell-based"}, "[15]": {"experiment": "Luminescence Cell-Based Dose Response HTS to Identify Inhibitors of 5'UTR Stem-Loop Driven Prion Protein mRNA Translation in H4 Neuroglioblastoma Cells. [Related pubchem assays: 1827 (Project Summary), 1813 (Primary HTS)]", "format": "functional"}, "[16]": {"tested_on": "INS1", "experiment": "INS-1E survival protection against cytokine death – cell-based, luminescence, retest, dose response (AID 449756);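 further: cell death triggered by IL-1 beta plus TNF-alpha plus IFN-gamma mixture; protective hits raise ATP signal compared with cytokine alone wells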", "format": "functional", "conditions": "Rattus norvegicus"}, "[17]": {"target": "T2, Voltage-gated N-type calcium channel alpha-1B subunit/Amyloid beta A4 precursor protein-binding family A member 1 (Homo sapiens, UniProt Q00975+Q02410)", "experiment": "disruptors of Mint-PDZ/N-type channel peptide interaction – biochemical, HTRF, SAR follow-up (AID 2489)", "format": "functional"}, "[18]": {"target": "T3, Estrogen receptor beta (Homo sapiens, UniProt Q92731)", "T3 sequence (Q92731 whole entry)": "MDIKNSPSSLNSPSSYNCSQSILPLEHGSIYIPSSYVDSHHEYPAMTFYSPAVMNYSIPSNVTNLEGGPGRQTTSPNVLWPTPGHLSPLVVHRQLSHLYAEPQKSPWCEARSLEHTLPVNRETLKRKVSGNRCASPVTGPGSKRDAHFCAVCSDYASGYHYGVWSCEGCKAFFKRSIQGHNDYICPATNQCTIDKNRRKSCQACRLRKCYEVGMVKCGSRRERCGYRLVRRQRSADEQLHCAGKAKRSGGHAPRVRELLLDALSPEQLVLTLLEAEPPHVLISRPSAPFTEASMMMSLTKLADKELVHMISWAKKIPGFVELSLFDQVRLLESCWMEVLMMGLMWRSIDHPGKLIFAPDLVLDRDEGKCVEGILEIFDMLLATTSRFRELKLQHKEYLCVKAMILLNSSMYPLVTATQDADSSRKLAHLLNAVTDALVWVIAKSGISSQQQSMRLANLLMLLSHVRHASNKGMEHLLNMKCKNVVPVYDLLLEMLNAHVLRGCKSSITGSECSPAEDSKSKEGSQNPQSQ", "experiment": "blockers of SRC-3 recruitment to ERβ – biochemical, ELISA, streptavidin-HRP readout, orthogonal assay, confirmation (AID 1060)"}, "[19]": {"target": "T3, Estrogen receptor beta"}, "[20]": {"target": "T4, Bcl-2-like protein 10 (Homo sapiens, UniProt Q9HD36)", "T4 sequence (Q9HD36 whole entry)": "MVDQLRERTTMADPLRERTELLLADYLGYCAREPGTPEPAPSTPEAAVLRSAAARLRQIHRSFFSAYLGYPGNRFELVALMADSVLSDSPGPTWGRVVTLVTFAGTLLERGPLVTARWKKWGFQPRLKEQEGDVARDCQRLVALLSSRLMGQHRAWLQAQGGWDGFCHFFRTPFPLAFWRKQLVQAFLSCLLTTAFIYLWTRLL", "experiment": "Bcl-B/TR3 peptide binding disruption – biochemical, fluorescence polarization, FITC-TR3 peptide, selectivity assay for Bfl-1 inhibitor project, primary screen (AID 748);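 further: fluorescence polarization from a fluorescein-labelled TR3 peptide binding purified Bcl-B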"}, "[21]": {"target": "SUMO E1/E2 (Homo sapiens, UniProt P63279+Q9UBE0+Q9UBT2)", "experiment": "SAR analysis of SUMOylation using HTRF in an in-Vitro dose response assay. [Related pubchem assays (depositor defined):AID2006, AID2011, AID2018, AID2069, AID2658]", "format": "functional"}, "[22]": {"target": "T2, Voltage-gated N-type calcium channel alpha-1B subunit/Amyloid beta A4 precursor protein-binding family A member 1", "experiment": "disruptors of Mint-PDZ/N-type channel peptide interaction – biochemical, HTRF, set 2, SAR follow-up (AID 434980)", "format": "functional"}, "[23]": {"target": "Sphingosine 1-phosphate receptor 2 (Homo sapiens, UniProt O95136)", "sequence (O95136 whole entry)": "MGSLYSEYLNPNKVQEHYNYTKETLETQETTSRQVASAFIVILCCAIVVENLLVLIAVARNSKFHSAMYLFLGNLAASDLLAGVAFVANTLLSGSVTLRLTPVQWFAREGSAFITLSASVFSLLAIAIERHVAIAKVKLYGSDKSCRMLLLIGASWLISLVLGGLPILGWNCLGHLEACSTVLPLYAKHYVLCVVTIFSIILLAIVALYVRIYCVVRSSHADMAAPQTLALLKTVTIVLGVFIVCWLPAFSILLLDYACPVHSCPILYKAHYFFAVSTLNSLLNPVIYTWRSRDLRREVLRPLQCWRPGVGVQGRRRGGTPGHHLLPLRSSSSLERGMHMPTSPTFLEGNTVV", "experiment": "Dose Response Cell Based Assay for Agonists of the S1P2 Receptor of Purchased Analogues. [Related pubchem assays: 729, 843, 854, 736 ]", "format": "functional"}, "[24]": {"experiment": "microbe, parasite or virus in culture", "format": "functional", "conditions": "Mycobacterium tuberculosis"}, "[25]": {"experiment": "MIN6 cell viability loss – mouse insulinoma, cytotoxicity control, dose response (AID 2122);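 further: confirmatory high-throughput counterscreen run to flag cytotoxic compounds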", "format": "functional"}, "[26]": {"experiment": "cells", "format": "functional, cell-based"}, "[27]": {"experiment": "fluconazole-exposed Candida albicans growth modulators – fluorescence, retest, confirmation (AID 2467)", "format": "functional, cell-based"}, "[28]": {"experiment": "decrease of insulin promoter-GFP reporter – imaging, high-content screening, mouse beta cells (AID 1628)", "format": "functional", "conditions": "MIN6"}, "[29]": {"target": "Nonstructural protein 1 (Influenza A virus, UniProt Q194T2)", "format": "functional, Influenza A virus (A/California/07/2009(H1N1))"}, "[30]": {"experiment": "NIH-3T3 fibroblast cytotoxicity, dose response, cytotoxicity control, cell-based, fluorescence, Alamar Blue, secondary assay (AID 2327)", "format": "functional"}, "[31]": {"experiment": "toxicity toward HepG2 liver cells – cell-based, plate reader, cherry-pick, antagonist series, cytotoxicity control, dose response (AID 743416)", "format": "functional"}, "[32]": {"tested_on": "HEK293", "experiment": "EBV LMP1 TES2 canonical NF-kB signalling blockers – cell-based, HEK293, luciferase, cherry-pick, dose response (AID 588343)", "format": "functional", "conditions": "Homo sapiens"}, "[33]": {"experiment": "cells", "format": "functional, cell-based", "remark": "listed apart in the source"}}, "note": "The source made the active and inactive calls."}
{"smiles": "N#Cc1cc(O)c(-n2nnc3ccccc32)cc1C#N", "values": [{"measurement": "EC50", "setting": "[1]", "result": "> 79.4 µM (not active)"}, {"measurement": "EC50", "setting": "[2]", "result": "> 79.4 µM (not active)"}, {"measurement": "EC50", "setting": "[3]", "result": "> 79.4 µM (not active)"}]}
{"smiles": "CN(c1ccccc1)S(=O)(=O)c1cccc(Cl)c1Cl", "values": [{"measurement": "EC50", "setting": "[4]", "result": "> 29.9 µM (not active)"}, {"measurement": "EC50", "setting": "[5]", "result": "4.52 µM (active)"}]}
{"smiles": "Cn1c(=O)n(Cc2ccccc2)c(=O)c2c1nc1n2CCCN1C1CCCCC1", "values": [{"measurement": "IC50", "setting": "[6]", "result": "> 100 µM (active)"}]}
{"smiles": "CCOC(=O)c1cnc2c(-c3ccc(F)cc3)cnn2c1C(F)(F)F", "values": [{"measurement": "IC50", "setting": "[7]", "result": "23.1 µM (active)"}]}
{"smiles": "CC1CCN(c2ccc(-c3cccs3)nn2)CC1", "values": [{"measurement": "AC50", "setting": "[8]", "result": "29.4 µM (active)"}, {"measurement": "AC50", "setting": "[9]", "result": "0.851 µM (active)"}, {"measurement": "AC50", "setting": "[10]", "result": "1.43 µM (active)"}, {"measurement": "AC50", "setting": "[11]", "result": "30.9 µM (active)"}, {"measurement": "EC50", "setting": "[12]", "result": "2.78 µM (active)"}, {"measurement": "IC50", "setting": "[13]", "result": "37.5 µM (not active)"}, {"measurement": "EC50", "setting": "[14]", "result": "8.6 µM (active)"}, {"measurement": "EC50", "setting": "[15]", "result": "10.4 µM (active)"}]}
{"smiles": "O=C(Nc1nc2ccccc2s1)c1cc(-c2ccccc2)nn1-c1ccccc1", "values": [{"measurement": "AC50", "setting": "[16]", "result": "3.62 µM (active)"}, {"measurement": "IC50", "setting": "[7]", "result": "47.4 µM (active)"}]}
{"smiles": "Cc1nn(Cc2c(F)cccc2Cl)c(C)c1[N+](=O)[O-]", "values": [{"measurement": "EC50", "setting": "[1]", "result": "> 79.4 µM (not active)"}, {"measurement": "EC50", "setting": "[2]", "result": "> 79.4 µM (not active)"}, {"measurement": "EC50", "setting": "[3]", "result": "> 79.4 µM (not active)"}]}
{"smiles": "COc1cccc(CN(CC2CCCO2)S(=O)(=O)c2ccc(S(=O)(=O)N(C)C)cc2)c1", "note": "(stereo unspecified)", "values": [{"measurement": "EC50", "setting": "[4]", "result": "> 29.9 µM (not active)"}, {"measurement": "EC50", "setting": "[5]", "result": "> 29.9 µM (not active)"}]}
{"smiles": "O=C(Nc1ccccc1N1CCOCC1)c1cc(-c2ccco2)nc2ccccc12", "values": [{"measurement": "IC50", "setting": "[17]", "result": "39.3 µM (active)"}, {"measurement": "IC50", "setting": "[18]", "result": "1.04 µM (not active)"}, {"measurement": "IC50", "setting": "[19]", "result": "3.78 µM (active)"}, {"measurement": "IC50", "setting": "[20]", "result": "95.1 µM (inactive)"}, {"measurement": "IC50", "setting": "[21]", "result": "48.2 µM (active)"}, {"measurement": "IC50", "setting": "[22]", "result": "9.81 µM (active)"}]}
{"smiles": "Cc1cc(C(=O)CN2C(=O)C(=O)N(C)C2=O)c(C)n1Cc1ccccc1", "values": [{"measurement": "EC50", "setting": "[23]", "result": "22.3 µM (not active)"}]}
{"smiles": "Cc1cc(C(=O)COC(=O)Cn2cnc3ccccc3c2=O)c(C)n1Cc1ccccc1", "values": [{"measurement": "EC50", "setting": "[23]", "result": "> 30 µM (not active)"}]}
{"smiles": "COc1ccc([C@H]2CC(=O)C=C(c3ccc4c5c(cccc35)CC4)C2)cc1", "values": [{"measurement": "IC50", "setting": "[6]", "result": "> 100 µM (active)"}, {"measurement": "CC50", "setting": "[24]", "result": "> 40 µM (active)"}]}
{"smiles": "COc1cccc(/C=N/Nc2nccnc2Cl)c1O", "values": [{"measurement": "IC50", "setting": "[25]", "result": "3.97 µM (active)"}, {"measurement": "AC50", "setting": "[8]", "result": "4.2 µM (active)"}, {"measurement": "AC50", "setting": "[9]", "result": "3.7 µM (active)"}, {"measurement": "EC50", "setting": "[26]", "result": "> 350 µM (not active)"}, {"measurement": "AC50", "setting": "[10]", "result": "3.39 µM (active)"}, {"measurement": "AC50", "setting": "[11]", "result": "6.83 µM (active)"}, {"measurement": "EC50", "setting": "[27]", "result": "1.52 µM (active)"}, {"measurement": "IC50", "setting": "[28]", "result": "3.57 µM (active)"}, {"measurement": "IC50", "setting": "[29]", "result": "7.59 µM (active)"}, {"measurement": "IC50", "setting": "[13]", "result": "9.16 µM (active)"}, {"measurement": "EC50", "setting": "[30]", "result": "> 150 µM (inactive)"}, {"measurement": "AC50", "setting": "[31]", "result": "2.48 µM (active)"}, {"measurement": "AC50", "setting": "[32]", "result": "2.73 µM (active)"}, {"measurement": "EC50", "setting": "[33]", "result": "6.97 µM (active)"}]}
